Like-named read-outs stand apart in the source and are kept apart here.
Experiments:
[1] = system: human intestinal Caco-2 cell membranes; settings: ref Yi et al., 2006; cited from earlier work
[2] = for ACNs in I.E. as % of input: fed state (high fat meal), ileal efflux over 4 h, mean ± range, two experiments
[3] = for hourly bioaccessibility as a percentage of anthocyanin input: fasted state, 4 h
[4] = system: mice with diet-induced diabetes; settings: orally administered, ref Grace et al., 2009; cited from earlier work

Compound: OC[C@H]1O[C@@H](Oc2cc3c(O)cc(O)cc3[o+]c2-c2cc(O)c(O)c(O)c2)[C@H](O)[C@@H](O)[C@@H]1O [dp-3-Glucoside, delphinidin-3-glucoside]
- transport efficiency in Caco-2 cells [1]: lower transport efficiency

Compound: COc1cc(-c2[o+]c3cc(O)cc(O)c3cc2O[C@@H]2O[C@H](COC(C)=O)[C@H](O)[C@H](O)[C@H]2O)cc(OC)c1O [mal-3-(6″-Acetoyl)-galactoside]
- ACNs in I.E. as % of input [2]: 2.4 ± 0.9 % of input

Compound: COc1cc(-c2[o+]c3cc(O)cc(O)c3cc2O[C@@H]2OC[C@H](O)[C@H](O)[C@H]2O)cc(OC)c1O [mal-3-Arabinoside, malvidin-3-arabinoside]
- ACNs in I.E. as % of input [2]: 2.6 ± 0.4 % of input
- total bioaccessibility in the fasted state relative to the fed state ([3]; fasted vs fed (high fat meal), Tables 1 and 2): twice as bioaccessible

Compound: COc1cc(-c2[o+]c3cc(O)cc(O)c3cc2O[C@@H]2O[C@H](CO)[C@H](O)[C@H](O)[C@H]2O)cc(OC)c1O [mal-3-Galactoside]
- ACNs in I.E. as % of input [2]: 2.6 ± 0.8 % of input

Compound: COc1cc(-c2[o+]c3cc(O)cc(O)c3cc2O[C@@H]2O[C@H](CO)[C@@H](O)[C@H](O)[C@H]2O)cc(OC)c1O [mal-3-Glucoside, malvidin-3-glucoside]
- transport efficiency in Caco-2 cells [1]: highest transport efficiency
- hypoglycemic effect [4]: hypoglycemic
- ACNs in I.E. as % of input [2]: 3.2 ± 0.1 % of input
- hourly bioaccessibility as a percentage of anthocyanin input ([3]; ileal samples): 0.3%
- hourly bioaccessibility as a percentage of anthocyanin input ([3]; jejunum): 0.8%

Compound: COc1cc(-c2[o+]c3cc(O)cc(O)c3cc2O[C@@H]2OC[C@H](O)[C@H](O)[C@H]2O)cc(O)c1O.[Cl-] [pt-3-Arabinoside, petunidin-3-arabinoside]
- total bioaccessibility in the fed state relative to the fasted state ([2]; fed (high fat meal) vs fasted, Tables 1 and 2): twice as bioaccessible
- ACNs in I.E. as % of input [2]: 4.5 ± 1.5 % of input

Reference: article PMC4072317 (Food chemistry, 2013)
